1 compound from patent publication US20220304945A1, “METHODS OF TREATING METABOLIC SYNDROME RELATED CONDITIONS USING RETINOIC ACID RECEPTOR AGONISTS” (Cornell University, priority 2014, published 2022) can be followed below.

The structures appear in SMILES notation.

The test system of this assay is pancreatic islets (β-cells). Kind of assay: Pancreatic islet size (insulin immunofluorescence) and pancreatic insulin content (ELISA). Type of assay: in vivo, mouse. The note with it: Ob/Ob and Db/Db models. On the procedure: Immunofluorescence and Immunostaining Microscopy-Paraffin embedded pancreatic tissue sections were incubated with antibodies against: insulin (mouse monoclonal 1:300, #1061, Beta Cell Biology Consortium). We utilized Alexa-fluor 488 conjugated anti-mouse secondary antibody (1:500) (Invitrogen, Carlsbad, Calif.) for immunofluorescence labeling of insulin followed by visualization using a Nikon TE2000 inverted fluorescence microscope (Nikon, Inc).
Pancreatic Insulin Measurements-Pancreatic insulin levels were measured in lysates from pancreatic tissues using an ultrasensitive Insulin ELISA Kit (Alpco, Inc. Salem, N.H.) as per the manufacturers' instructions. Insulin concentrations were normalized to pancreatic protein concentrations determined using the DC protein assay (Bio-Rad, Inc. Hercules, Calif.) according to the manufacturers' protocol. Endocrine hormones levels are reported as mean±standard error of the mean (S.E.M) and P-values calculated using one-way analysis of variance followed by Bonferroni multiple comparison test post-hoc analysis.
Measurement of Pancreatic Endocrine Cell Mass.—Pancreatic endocrine cell mass was determined using a direct point counting method as previously described. […]

In the case of `CCCCOCCOc1nc(-c2ccc(C(=O)O)c(F)c2)sc1C` [AC261066], the pancreatic insulin content entry is reported as “diminishes”. Further, the “number of large pancreatic islets (enlarged β-cells)” value (HF-fed mice) is “diminishes”.
